Results reported in EPA's CvTdb concentration-time database.

Legend:
Assay in all cases: concentration in plasma after dosing
[1] = system: Rat; settings: dosed: Oxazepam, 50 mg/kg, oral, Female, F344
[2] = system: Rat; settings: 2 h; dosed: Oxazepam; 50 mg/kg; oral; Male; F344
[3] = system: Rat; settings: dosed: Oxazepam, 200 mg/kg, oral, Male, F344
[4] = system: Rat; settings: dosed: Oxazepam, 200 mg/kg, oral, Female, F344
[5] = system: Rat
[6] = system: Rat; settings: dosed: Oxazepam, 50 mg/kg, oral, Male, F344
[7] = system: Rat; settings: dosed: Oxazepam, 50 mg/kg, oral, Female, F344; remark: listed apart in the source
[8] = system: Rat; settings: dosed: Oxazepam, 50 mg/kg, oral, Male, F344; remark: listed apart in the source
[9] = system: Rat; settings: dosed: Oxazepam, 50 mg/kg, oral, Male, F344; remark: listed apart in the source
[10] = system: Rat; settings: dosed: Oxazepam, 200 mg/kg, oral, Female, F344; remark: listed apart in the source
[11] = system: Rat; settings: dosed: Oxazepam, 200 mg/kg, oral, Male, F344; remark: listed apart in the source
[12] = system: Rat; settings: dosed: Oxazepam, 200 mg/kg, oral, Male, F344; remark: listed apart in the source
[13] = system: Rat; settings: 3.5 h; dosed: Oxazepam; 50 mg/kg; oral; Female; F344
[14] = system: Rat; settings: dosed: Oxazepam, 50 mg/kg, oral, Female, F344; remark: listed apart in the source
[15] = system: Rat; settings: dosed: Oxazepam, 200 mg/kg, oral, Female, F344; remark: listed apart in the source
[16] = system: Rat; settings: dosed: Oxazepam, 200 mg/kg, oral, Male, F344; remark: listed apart in the source
[17] = system: Rat; settings: dosed: Oxazepam, 400 mg/kg, oral, Male, F344
[18] = system: Rat; settings: dosed: Oxazepam, 200 mg/kg, oral, Male, F344; remark: listed apart in the source
[19] = system: Rat; settings: dosed: Oxazepam, 200 mg/kg, oral, Male, F344; remark: listed apart in the source
[20] = system: Rat; settings: dosed: Oxazepam, 200 mg/kg, oral, Female, F344; remark: listed apart in the source
[21] = system: Rat; settings: dosed: Oxazepam, 400 mg/kg, oral, Male, F344; remark: listed apart in the source
[22] = system: Rat; settings: dosed: Oxazepam, 200 mg/kg, oral, Female, F344; remark: listed apart in the source
[23] = system: Rat; settings: dosed: Oxazepam, 400 mg/kg, oral, Female, F344
[24] = system: Rat; settings: dosed: Oxazepam, 50 mg/kg, oral, Male, F344; remark: listed apart in the source
[25] = system: Rat; settings: 3.5 h; dosed: Oxazepam; 50 mg/kg; oral; Male; F344
[26] = system: Rat; settings: 1 h; dosed: Oxazepam; 50 mg/kg; oral; Female; F344
[27] = system: Rat; settings: dosed: Oxazepam, 400 mg/kg, oral, Female, F344; remark: listed apart in the source
[28] = system: Rat; settings: dosed: Oxazepam, 200 mg/kg, oral, Male, F344; remark: listed apart in the source
[29] = system: Rat; settings: dosed: Oxazepam, 50 mg/kg, oral, Male, F344; remark: listed apart in the source
[30] = system: Rat; settings: dosed: Oxazepam, 200 mg/kg, oral, Female, F344; remark: listed apart in the source
[31] = system: Rat; settings: dosed: Oxazepam, 50 mg/kg, oral, Female, F344; remark: listed apart in the source
[32] = system: Rat; settings: dosed: Oxazepam, 50 mg/kg, oral, Female, F344; remark: listed apart in the source
[33] = system: Rat; settings: dosed: Oxazepam, 50 mg/kg, oral, Female, F344; remark: listed apart in the source
[34] = system: Rat; settings: dosed: Oxazepam, 200 mg/kg, oral, Female, F344; remark: listed apart in the source
[35] = system: Rat; settings: dosed: Oxazepam, 200 mg/kg, oral, Male, F344; remark: listed apart in the source
[36] = system: Rat; settings: dosed: Oxazepam, 200 mg/kg, oral, Female, F344; remark: listed apart in the source
[37] = system: Rat; settings: 3.5 h; dosed: Oxazepam; 50 mg/kg; oral; Male; F344; remark: listed apart in the source
[38] = system: Rat; settings: dosed: 4-methylimidazole, 10 mg/kg, iv, Male, Harlan Sprague Dawley
[39] = system: Rat; settings: dosed: 4-methylimidazole, 10 mg/kg, iv, Male, Harlan Sprague Dawley; remark: listed apart in the source
[40] = system: Rat; settings: dosed: 4-methylimidazole, 10 mg/kg, iv, Male, Harlan Sprague Dawley; remark: listed apart in the source
[41] = system: Rat; settings: dosed: 4-methylimidazole, 10 mg/kg, iv, Male, Harlan Sprague Dawley; remark: listed apart in the source
[42] = system: Rat; settings: dosed: 4-methylimidazole, 10 mg/kg, iv, Male, Harlan Sprague Dawley; remark: listed apart in the source
[43] = system: Rat; settings: dosed: 4-methylimidazole, 10 mg/kg, iv, Male, Harlan Sprague Dawley; remark: listed apart in the source
[44] = system: Rat; settings: dosed: 4-methylimidazole, 10 mg/kg, iv, Male, Harlan Sprague Dawley; remark: listed apart in the source
[45] = system: Rat; settings: dosed: 4-methylimidazole, 10 mg/kg, iv, Male, Harlan Sprague Dawley; remark: listed apart in the source
[46] = system: Rat; settings: dosed: 4-methylimidazole, 10 mg/kg, iv, Male, Harlan Sprague Dawley; remark: listed apart in the source
[47] = system: Rat; settings: 0.75 h; dosed: 4-methylimidazole; 10 mg/kg; iv; Male; Harlan Sprague Dawley
[48] = system: Rat; settings: dosed: 4-methylimidazole, 10 mg/kg, iv, Male, Harlan Sprague Dawley; remark: listed apart in the source
[49] = system: Rat; settings: dosed: 4-methylimidazole, 10 mg/kg, iv, Male, Harlan Sprague Dawley; remark: listed apart in the source
[50] = system: Rat; settings: dosed: 4-methylimidazole, 10 mg/kg, iv, Male, Harlan Sprague Dawley; remark: listed apart in the source
[51] = system: Rat; settings: dosed: 4-methylimidazole, 10 mg/kg, iv, Female, Harlan Sprague Dawley
[52] = system: Rat; settings: 0.75 h; dosed: 4-methylimidazole; 10 mg/kg; iv; Male; Harlan Sprague Dawley; remark: listed apart in the source
[53] = system: Rat; settings: dosed: 4-methylimidazole, 10 mg/kg, iv, Male, Harlan Sprague Dawley; remark: listed apart in the source
[54] = system: Rat; settings: dosed: 4-methylimidazole, 10 mg/kg, iv, Male, Harlan Sprague Dawley; remark: listed apart in the source
[55] = system: Rat; settings: 0.5 h; dosed: 4-methylimidazole; 10 mg/kg; iv; Male; Harlan Sprague Dawley
[56] = system: Rat; settings: dosed: 4-methylimidazole, 10 mg/kg, iv, Female, Harlan Sprague Dawley; remark: listed apart in the source
[57] = system: Rat; settings: dosed: 4-methylimidazole, 10 mg/kg, iv, Male, Harlan Sprague Dawley; remark: listed apart in the source
[58] = system: Rat; settings: dosed: 4-methylimidazole, 10 mg/kg, iv, Male, Harlan Sprague Dawley; remark: listed apart in the source
[59] = system: Rat; settings: dosed: 4-methylimidazole, 10 mg/kg, iv, Male, Harlan Sprague Dawley; remark: listed apart in the source
[60] = system: Rat; settings: dosed: 4-methylimidazole, 10 mg/kg, iv, Male, Harlan Sprague Dawley; remark: listed apart in the source
[61] = system: Rat; settings: dosed: 4-methylimidazole, 10 mg/kg, iv, Male, Harlan Sprague Dawley; remark: listed apart in the source
[62] = system: Rat; settings: dosed: 4-methylimidazole, 10 mg/kg, iv, Male, Harlan Sprague Dawley; remark: listed apart in the source
[63] = system: Rat; settings: 0.5 h; dosed: 4-methylimidazole; 10 mg/kg; iv; Male; Harlan Sprague Dawley; remark: listed apart in the source
[64] = system: Rat; settings: dosed: 4-methylimidazole, 10 mg/kg, iv, Male, Harlan Sprague Dawley; remark: listed apart in the source
[65] = system: Rat; settings: dosed: 4-methylimidazole, 10 mg/kg, iv, Male, Harlan Sprague Dawley; remark: listed apart in the source

O=C1Nc2ccc(Cl)cc2C(c2ccccc2)=NC1O (centres undefined) [Oxazepam]
Settings | concentration in plasma [ng/mL]
[1], 2 h | 1620
[1], 18 h | 270
[3], 6 h | 1960
[3], 20 min | 1020
[4], 6 h | 4550
[4], 20 min | 1250
[6], 6 h | 580
[6], 20 min | 400
[7], 6 h | 1560
[7], 20 min | 880
[8], 1 h | 1280
[8], 10 h | 520
[9], 6 h | 510
[9], 20 min | 290
[10], 1 h | 2880
[10], 10 h | 3470
[11], 1 h | 2310
[11], 10 h | 1250
[12], 1 h | 1630
[12], 10 h | 2030
[14], 2 h | 3640
[14], 18 h | 270
[15], 2 h | 2840
[15], 18 h | 760
[16], 2 h | 2210
[16], 18 h | 1850
[17], 1 h | 3500
[17], 10 h | 1790
[18], 6 h | 2020
[18], 20 min | 1470
[19], 3.5 h | 10500
[19], 24 h | 1320
[20], 2 h | 3340
[20], 18 h | 3360
[21], 1 h | 2440
[21], 10 h | 3960
[22], 6 h | 1000
[22], 20 min | 1200
[23], 1 h | 3270
[23], 10 h | 4280
[24], 2 h | 990
[24], 18 h | 370
[27], 1 h | 4120
[27], 10 h | 5630
[28], 3.5 h | 2630
[28], 24 h | 520
[29], 1 h | 950
[29], 10 h | 390
[30], 3.5 h | 2990
[30], 24 h | 10000
[31], 1 h | 1610
[31], 10 h | 820
[32], 3.5 h | 710
[32], 24 h | 450
[33], 6 h | 1630
[33], 20 min | 760
[34], 3.5 h | 4280
[34], 24 h | 1460
[35], 2 h | 2130
[35], 18 h | 3140
[36], 1 h | 2300
[36], 10 h | 1720

Settings | concentration in plasma [ng/mL]
[2] | 990
[13] | 2510
[25] | 1070
[26] | 1290
[37] | 1260

concentration in plasma [ng/mL], [5], dosed: Oxazepam, oral, F344
Settings | 1 h | 2 h | 3.5 h | 6 h | 10 h | 18 h | 20 min | 24 h
50 mg/kg, Female | 2850 | 1900 | 1170 | 1230 | 1380 | 280 | 560 | –
50 mg/kg, Male | 1230 | 1000 | 910 | 680 | 330 | – | 450 | 590
200 mg/kg, Female | 3020 | 3870 | 2700 | 3910 | 5160 | 5030 | 1250 | 5000
200 mg/kg, Male | 2370 | – | 3150 | 1580 | 1890 | 730 | 600 | 2280
400 mg/kg, Female | 4100 | – | – | – | 4480 | – | – | –
400 mg/kg, Male | 3070 | – | – | – | 2910 | – | – | –

Cc1cnc[nH]1 [4-methylimidazole]
Settings | concentration in plasma [ng/mL]
[38], 6 h | 112
[38], 20 min | 7340
[39], 0.75 h | 4780
[39], 2 min | 11800
[40], 0.5 h | 5620
[40], 6 h | 162
[41], 2 h | 3520
[41], 10 min | 6960
[42], 0.5 h | 5280
[42], 6 h | 108
[43], 4 h | 647
[43], 20 min | 6930
[44], 2 h | 2740
[44], 7 min | 8840
[45], 2 h | 2460
[45], 10 min | 7010
[46], 6 h | 148
[46], 20 min | 6950
[48], 4 h | 1490
[48], 10 min | 7840
[49], 4 h | 611
[49], 10 min | 8520
[50], 2 h | 3340
[50], 7 min | 8240
[51], 1 h | 6380
[51], 2 min | 10500
[53], 4 h | 1720
[53], 10 min | 7910
[54], 1 h | 4070
[54], 2 min | 10200
[56], 1 h | 5190
[56], 2 min | 12000
[57], 2 h | 2740
[57], 7 min | 8150
[58], 6 h | 116
[58], 20 min | 6840
[59], 1 h | 4110
[59], 7 min | 7090
[60], 0.75 h | 3040
[60], 8 h | 656
[61], 1 h | 4610
[61], 2 min | 12200
[62], 0.75 h | 5620
[62], 8 h | 74.3
[64], 4 h | 960
[64], 20 min | 5890
[65], 0.5 h | 5440
[65], 8 h | 88.2

concentration in plasma [ng/mL], [5], dosed: 4-methylimidazole, 10 mg/kg, iv, Harlan Sprague Dawley
Settings | Female | Male
0.5 h | – | 7300
0.75 h | – | 6210
1 h | 4810 | –
2 h | – | 2060
2 min | – | 9350
4 h | – | 690
6 h | – | 454
7 min | 8000 | 9000
8 h | – | 205
10 min | – | 8770
20 min | – | 6950

Settings | concentration in plasma [ng/mL]
[47] | 6160
[52] | 5440
[55] | 5420
[63] | 5770
